# Counter-ions that a name gives are not always drawn.
# What was measured:
# [1] = Stress ulcer (water immersion stress) in mice; type: in vivo, mice (ddK strain, male)
# Protocol: Male mice of ddK strain (body weights, 18-20 g) were placed in a stress cage in groups of 6 animals and immersed down to the level of the xiphoid process in a water bath at 22±1° C. to give a stress. Five hours later the mice were raised from the water bath and the stomach was removed under ether anesthesia. Into the stomach was infused 1.2 ml of a 10% aqueous solution of formaldehyde and, then, the stomach was immersed in a 10% aqueous solution of formaldehyde for 10 minutes for fixation of the tissue. After fixation, an incision was made along the greater curvature for observing ulcers which had appeared in the glandular portion of the stomach. The degree of ulceration was classified according to the following ulcer index scale and the % inhibition of ulcer was estimated.
# 2: Hemorrhage and erosion
# 3: Severe hemorrhage and erosion
# Each test compound was orally administered, as suspended in a gum arabic solution in concentration of 5%, to mice 10 minutes before stress loading.
# [2] = Indomethacin-induced ulcer in rats; type: in vivo, Wistar rats (male); conditions: Table 3, 200 mg/kg p.o.
# Protocol: (§1) Male Wistar rats (body weights, 170-210 g) were used in groups of 6 to 8 animals. Indomethacin, 20 mg/kg body weight, was injected subcutaneously to rats which had been deprived of food for 24 hours. After 7 hours, the stomach was excised under ether anesthesia. A 10% aqueous solution of formaldehyde was infused into the stomach until the stomach was inflated and, then, the stomach was immersed in a 10% aqueous solution of formaldehyde for 10 minutes for fixation of the tissue. After fixation, an incision was made along the greater curvature and the length of ulcers occurring in the glandular portion of the stomach was measured. The total length of ulcers occurring in a rat was taken as an ulcer index. Each test compound was orally administered, as suspended in a gum arabic solution in concentration of 5%, to rats 10 minutes before subcutaneous injection of indomethacin. The doses of test compounds and the ulcer indices for treated and untreated rats are shown in Table 3 for purposes of comparison. The % inhibition of ulcer by each test compound as estimated from the ulcer index is also presented in the same table.
# [3] = Pyloric ligation-induced ulcer (Shay ulcer) in rats; type: in vivo, Wistar rats (male); conditions: Table 2, 200 mg/kg i.d.
# Protocol: Male Wistar rats (body weights, 180-200 g) were used in groups of 7 animals. After 48-hour fasting, laparotomy was performed under ether anesthesia and the pylorus was ligated with a suture. After 13 hours, the stomach was isolated under ether anesthesia and gastric juice was collected. The gastric juice was centrifuged at 3,000 r.p.m. for 10 minutes and the volume and pH value of gastric juice were determined. The pH value was determined by using pH paper. After collection of gastric juice, a 10% aqueous solution of formaldehyde was infused into the stomach until the stomach was inflated. Then, the stomach was immersed in a 10% aqueous solution of formaldehyde for 10 minutes for fixation of the tissue. After fixation, an incision was made along the greater curvature for observing ulcers which had developed in the glandular portion of the stomach. The degree of ulcer was classified according to the following ulcer index scale.
# 2: 1-5 small ulcers (<3 mm in diameter)
# 3: Six or more small ulcers or one large ulcer (>3 mm in diameter)
# 4: Two or more large ulcers
# Each test compound was administered, as suspended in a gum arabic solution in concentration of 5%, into the duodenum immediately after pyloric ligation.
# [4] = Hydrochloric acid-ethanol-induced ulcer in rats; type: in vivo, Wistar rats (male)
# Protocol: as §1, with “Male Wistar rats (body weights, 160-190 g) were used in groups” for “The doses”, “6 to 8 animals. One milliliter of a 60% aqueous solution of ethanol containing 150 mM hydrochloric acid was administered orally to rats which had been deprived of food for 24 hours. After one hour,” for “test compounds and”, “stomach was excised under ether anesthesia. In a manner similar to that described in study” for “ulcer indices”, “indomethacin-induced ulcer,” for “treated and untreated rats are shown in Table 3 for purposes of comparison. The % inhibition of ulcer by each test compound as estimated from”, “was determined. Each test compound was orally administered, as suspended” for “is also presented”, “a gum arabic solution in concentration of 5%, to rats 1 hour before administration of hydrochloric acid-ethanol.” for “the same table.”
# [5] = Expectorant action: tracheal secretion of fluorescein sodium in rats; type: in vivo, Wistar rats (male); conditions: 50 mg/kg oral
# Protocol: Male Wistar rats (body weights, 280-320 g) were used in groups of 7 animals. Each test compound was orally administered in dose of 50 mg/kg body weight to rats. Immediately after administration, 0.3 ml/100 g (body weight of rat) of a 1% aqueous solution of fluorescein sodium was injected into the caudal vein. One hour after administration of the test compound, pentobarbital sodium 100 mg/kg (body weight of rat) was injected intraperitoneally so that deep anesthesia might cause the rat to die. Then, the trachea was exposed and an incision was made in the trachea. A sonde was inserted thereinto and ligation was made. To the sonde was connected a syringe containing 10 ml of a 5% solution of sodium hydrogen carbonate kept at 37° C. and 4 ml of the solution of sodium hydrogen carbonate was injected into the lung. After 5 minutes, the fluid in the lung was removed. After this procedure of injection and removal was repeated three times, the fluid removed from the lung was filtered and the filtrate was made up with water to make 20 ml. The intensity of fluroescence was determined at the excitation wave length of 491 nm and the fluorescence wave length of 510 nm using a spectrophotometer (HITACHI model 650-10, Hitachi, Ltd.). The amount of fluorescein sodium secreted into the trachea was estimated from the intensity of fluorescence. Each test compound was administered as suspended in a gum arabic solution in concentration of 5%.
# [6] = Table 16, control 6.455 ± 0.766
smiles,measurement,setting,value
CN1[C@@H]2CC[C@H]1C[C@@H](OC(=O)C(CO)c1ccccc1)C2 (stereo partly shown) [Atropine sulfate],% Inhibition of ulcer,"[1]; Table 1, 30 mg/kg p.o.",80.99%
same,Ulcer index (mean ± S.E.),"[1]; Table 1, 30 mg/kg p.o., control 2.63 ± 0.18",0.50 ± 0.29 mm
"CNC(=NC#N)NCCSCc1nc[nH]c1C [Cimetidine, N""-cyano-N-methyl-N'-[2-[(5-methyl-1H-imidazol-4-yl)methylthio]ethyl]guanidine, reference compound]",% Inhibition of ulcer,[2],86.97%
same,Ulcer index (mean ± S.E.),[2]; control 10.36 ± 2.07,1.35 ± 0.48 mm
same,% Inhibition of ulcer,"[1]; mouse, in vivo, po, 200 mg/kg",49.43%
same,Ulcer index (mean ± S.E.),"[1]; mouse, in vivo, po, 200 mg/kg",1.33 ± 0.21 mm
same,pH value of gastric juice,[3]; control 1.77 ± 0.54,2.29 ± 0.88
same,Volume of gastric juice,[3]; control 5.09 ± 0.40,5.13 ± 0.99 ml/100 g body weight
same,Ulcer index (mean ± S.E.),"[3]; scale 0-5, control 3.86 ± 0.40",1.71 ± 0.18
same,inhibition in vivo at 200 mg/kg,"[4]; Rattus norvegicus, po, 1 h, Table 7, 200 mg/kg p.o.",77.9%
same,inhibition in vivo at 200 mg/kg,"[4]; Rattus norvegicus, po, 1 h, Table 12, 200 mg/kg p.o.",78%
same,Ulcer index (mean ± S.E.),"[4]; Table 4, 200 mg/kg p.o., control 7.36 ± 1.23",1.63 ± 0.49 mm
same,Ulcer index (mean ± S.E.),"[4]; Table 12, 200 mg/kg p.o., control 9.93 ± 0.91",2.18 ± 1.04 mm
"COc1c(C)c(C)c2c(c1C)CCC(C)(CCN1CCN(C(=O)CCC=C(C)CCC=C(C)CCC=C(C)C)CC1)O2 (stereo not shown) [Compound (24), 1-[2-(3,4-Dihydro-6-methoxy-2,5,7,8-tetramethyl-2H-benzopyran-2-yl)ethyl]-4-(5,9,13-trimethyl-4,8,12-tetradecatrienoyl)piperazine]",Secretory amount (mean ± S.E.),"[5]; Table 14, control 1.60 ± 0.18",2.74 ± 0.22 μg/100 g (body weight of rat)/
"COc1ccc2c(c1)OC(C)(CCN1CCN(C(=O)c3cc(OC)c(OC)c(OC)c3)CC1)CC2 (stereo not shown) [Compound (25), 1-[2-(3,4-Dihydro-7-methoxy-2-methyl-2H-benzopyran-2-yl)ethyl]-4-(3,4,5-trimethoxybenzoyl)piperazine]",Secretory amount (mean ± S.E.),"[5]; Table 14, control 1.60 ± 0.18",3.08 ± 0.19 μg/100 g (body weight of rat)/
"COc1ccc(C(=O)N2CCN(CCC3(C)CCc4cc(Cl)ccc4O3)CC2)cc1 (stereo not shown) [Compound (26), 1-[2-(6-Chloro-3,4-dihydro-2-methyl-2H-benzopyran-2-yl)ethyl]-4-(4-methoxybenzoyl)piperazine]",Secretory amount (mean ± S.E.),"[5]; Table 15, control 5.20 ± 0.78",9.61 ± 0.83 μg/100 g (body weight of rat)/
"COc1ccc(C(=O)N2CCN(CCCC3(C)CCc4c(C)c(OC)c(C)c(C)c4O3)CC2)cc1 (stereo not shown) [Compound (27), 1-[3-(3,4-Dihydro-6-methoxy-2,5,7,8-tetramethyl-2H-benzopyran-2-yl)propyl]-4-(4-methoxybenzoyl)piperazine]",Secretory amount (mean ± S.E.),"[5]; Table 15, control 5.20 ± 0.78",6.45 ± 0.72 μg/100 g (body weight of rat)/
"COc1ccc(CN2CCN(C(=O)CC3(C)CCc4c(C)c(OC)c(C)c(C)c4O3)CC2)c(OC)c1OC (stereo not shown) [Compound (28), 1-[(3,4-Dihydro-6-methoxy-2,5,7,8-tetramethyl-2H-benzopyran-2-yl)acetyl]-4-(2,3,4-trimethoxybenzyl)piperazine]",Secretory amount (mean ± S.E.),"[5]; Table 14, control 1.60 ± 0.18",3.28 ± 0.31 μg/100 g (body weight of rat)/
"COc1ccc(CN2CCN(C(=O)CC3(C)CCc4cc(Cl)ccc4O3)CC2)c(OC)c1OC (stereo not shown) [Compound (29), 1-[(6-Chloro-3,4-dihydro-2-methyl-2H-benzopyran-2-yl)acetyl]-4-(2,3,4-trimethoxybenzyl)piperazine]",Secretory amount (mean ± S.E.),"[5]; Table 13, control 5.30 ± 0.40",5.57 ± 0.36 μg/100 g (body weight of rat)/
"COc1ccc(CN2CCN(C(=O)C3(C)CCc4c(C)c(OC)c(C)c(C)c4O3)CC2)c(OC)c1OC (stereo not shown) [Compound (30), 1-[(3,4-Dihydro-6-methoxy-2,5,7,8-tetramethyl-2H-benzopyran-2-yl)carbonyl]-4-(2,3,4-trimethoxybenzyl)piperazine]",Secretory amount (mean ± S.E.),"[5]; Table 13, control 5.30 ± 0.40",5.45 ± 0.54 μg/100 g (body weight of rat)/
"COc1ccc(CN2CCN(CCC3(C)CCc4c(C)c(OC)c(C)c(C)c4O3)CC2)c(OC)c1OC (stereo not shown) [Compound (31), 1-[2-(3,4-Dihydro-6-methoxy-2,5,7,8-tetramethyl-2H-benzopyran-2-yl)ethyl]-4-(2,3,4-trimethoxybenzyl)piperazine]",Secretory amount (mean ± S.E.),[5]; [6],7.529 ± 0.751 μg/100 g (body weight of rat)/
same,inhibition in vivo at 50 mg/kg,"[4]; Rattus norvegicus, po, 1 h, Table 11, 50 mg/kg p.o.",100%
same,Ulcer index (mean ± S.E.),"[4]; Table 11, 50 mg/kg p.o., control 6.12 ± 1.76",0.00 ± 0.00 mm
"COc1c(C)c(C)c2c(c1C)CCC(C)(CCN1CCN(C(=O)c3ccccc3)CC1)O2 (stereo not shown) [Compound (32), 1-Benzoyl-4-[2-(3,4-dihydro-6-methoxy-2,5,7,8-tetramethyl-2H-benzopyran-2-yl)ethyl]piperazine]",Secretory amount (mean ± S.E.),"[5]; Table 13, control 5.30 ± 0.40",5.43 ± 0.72 μg/100 g (body weight of rat)/
"COc1c(C)c(C)c2c(c1C)CCC(C)(CCN1CCN(CCO)CC1)O2 (stereo not shown) [Compound (35), 1-[2-(3,4-Dihydro-6-methoxy-2,5,7,8-tetramethyl-2H-benzopyran-2-yl)ethyl]-4-(2-hydroxyethyl)piperazine]",Secretory amount (mean ± S.E.),[5]; [6],10.297 ± 1.841 μg/100 g (body weight of rat)/
